Results: patent US7417025B2, “Use of poly-α2,8-sialic acid mimetic peptides to modulate NCAM functions” (Centre National de la Recherche Scientifique, priority 2002, dated 2008)

How the values were obtained:
[1] = tested on: GFP positive SVZ cells migrating to the olfactory bulb; experiment: Transplantation of GFP SVZ explants: cell migration in vivo; set-up: species or system mouse
Method: 100 μm diameter explants of 1-day-old GFP mice SVZ were incubated fifteen minutes in DMEM supplemented with 10% fetal bovine serum in presence of 0.01 M of p65 or reverse peptide and stereotaxically grafted (0.5 μl) into six weeks old mice SVZ as described in Lois and Alvarez-Buylla (Science, 1994, 264, 1145-1 148). Three or four days after the graft, animals were perfused intracardiacally with a 4% paraformaldehyde solution in PBS. Brains were dissected out, postfixed, cryoprotected, and freezed in isopentane. Sagittal serial sections (12 μm) were cut with a Leica microtome and immunostained as described above. GFP cells arriving in the olfactory bulb after three days were observed using UV fluorescence with a 40× objective (Axioscope, ZEISS) and counted on two different experiments (four animals per condition). The significance of the difference between the two conditions was calvalated by Student's t test.
The effect of PSA mimetic peptides on cell migration in vivo was analysed by grafting tissue and evaluating migration of SVZ cells. Small pieces of SVZ tissue (100 μm diameter) from 1-day-old GFP mice were grafted in the SVZ area of adult mice, in the presence of p65, p65 reverse peptide or in the absence of peptide. The results are illustrated in FIG. 8.

[2] = tested on: Glial Fibrillary acidic Protein (GFAP) expression; experiment: Reactive gliosis after spinal cord injury (GFAP staining); type: in vivo, mouse; conditions: D5 following surgery
Method: At D5, lesioned animals which received either p65 (n=3) or reversed p65 (n=3) were transcardiacally perfused. Spinal cords were sectioned in the sagittal plane at 20 μm intervals in blocks of 10 mm length at the lesion site. To examine lesion extent, Nissl staining was performed in series of 1-in-6 sections in all animals. Series of 1-in-3 sections were stained with the MenB anti-PSA (mouse IgM) and/or anti-GFAP (mouse IgG) antibodies.
To assess the effect of the peptide, quantification of the Glial Fibrillary acidic Protein (GFAP) expression as an index of reactive gliosis, was undertaken in a subset of animals taken D5 following surgery. These animals were selected in a blinded manner for quantification. 3 p65 (10 slices per animal) and 3 p65-reverse (10 slices per animal) animals were analyzed. Double-labelling was performed with MenB anti-PSA antibody. Quantification was also performed in a blinded manner.

30H12 antibody = experiment: ELISA with peptide-BSA conjugate on 30H12-coated plates; type: binding; conditions: no competitor, FIG. 12A
Text: FIG. 12A: ELISA using 30H12 anti-PSA monoclonal antibody-coated plates.
The specificity of the cyclic peptides was investigated in an ELISA assay using plates coated with 30H12 antibody, following the protocol as described above for the competitive ELISA, with the exception that the competitor was omitted.

[3] = tested on: 30H12 monoclonal antibody; experiment: Competitive binding to PSA-NCAM expressing cells (30H12); set-up: dose or concentration left out as unconfirmed
Method: FIGS. 12B, 12C and 12D: competitive binding to PSA-NCAM expressing cells. B: pre-incubation of p65 (1 mM) or p66 (1 mM) with MenB anti-PSA antibody. C: 30H12 anti-PSA antibody without peptide. […]
The specificity of p65 and p66 peptides was tested in a competition assay using anti-PSA antibodies and PSA-NCAM expressing cells. […] The binding specificity was examined in greater detail by testing peptide recognition by another anti-PSA mononclonal antibody (MenB). […] Thus, p65 and p66 mimotopes appear to be specific for a unique (idiotypic) determinant.

Question: With CSSVTAWTTGCG [p65] as the sequence, how does the “Increase of the number of GFP positive cells present in the olfactory bulb by comparison with the control” value ([1]; 3 days after the graft) read?
Answer: 17 times

Question: What about the “Number of GFP positive cells migrating to the olfactory bulb” value ([1]; by comparison with the control, from 3 days post-engraftment) of the same sequence?
Answer: increases significantly

Question: What about the “Reduction of reactive gliosis (GFAP staining) compared with reverse p65-treatment” value [2] of the same sequence?
Answer: 40%

Question: And the “Binding of cyclic peptides to 30H12 antibody in ELISA” value (30H12 antibody)?
Answer: highest binding

Question: What about the “Binding of 30H12 monoclonal antibody to PSA-NCAM expressing cells after pre-incubation with peptide” value [3] of the same sequence?
Answer: prevented its binding
